This test deals with Receptor tyrosine-protein kinase erbB-2 (Homo sapiens, UniProt P04626). Kind of test: Inhibition of autophosphorylation of HER-2 expressed in NIH3T3 cell lines. The class given is cell-based.
Receptor tyrosine-protein kinase erbB-2, sequence (P04626 whole entry): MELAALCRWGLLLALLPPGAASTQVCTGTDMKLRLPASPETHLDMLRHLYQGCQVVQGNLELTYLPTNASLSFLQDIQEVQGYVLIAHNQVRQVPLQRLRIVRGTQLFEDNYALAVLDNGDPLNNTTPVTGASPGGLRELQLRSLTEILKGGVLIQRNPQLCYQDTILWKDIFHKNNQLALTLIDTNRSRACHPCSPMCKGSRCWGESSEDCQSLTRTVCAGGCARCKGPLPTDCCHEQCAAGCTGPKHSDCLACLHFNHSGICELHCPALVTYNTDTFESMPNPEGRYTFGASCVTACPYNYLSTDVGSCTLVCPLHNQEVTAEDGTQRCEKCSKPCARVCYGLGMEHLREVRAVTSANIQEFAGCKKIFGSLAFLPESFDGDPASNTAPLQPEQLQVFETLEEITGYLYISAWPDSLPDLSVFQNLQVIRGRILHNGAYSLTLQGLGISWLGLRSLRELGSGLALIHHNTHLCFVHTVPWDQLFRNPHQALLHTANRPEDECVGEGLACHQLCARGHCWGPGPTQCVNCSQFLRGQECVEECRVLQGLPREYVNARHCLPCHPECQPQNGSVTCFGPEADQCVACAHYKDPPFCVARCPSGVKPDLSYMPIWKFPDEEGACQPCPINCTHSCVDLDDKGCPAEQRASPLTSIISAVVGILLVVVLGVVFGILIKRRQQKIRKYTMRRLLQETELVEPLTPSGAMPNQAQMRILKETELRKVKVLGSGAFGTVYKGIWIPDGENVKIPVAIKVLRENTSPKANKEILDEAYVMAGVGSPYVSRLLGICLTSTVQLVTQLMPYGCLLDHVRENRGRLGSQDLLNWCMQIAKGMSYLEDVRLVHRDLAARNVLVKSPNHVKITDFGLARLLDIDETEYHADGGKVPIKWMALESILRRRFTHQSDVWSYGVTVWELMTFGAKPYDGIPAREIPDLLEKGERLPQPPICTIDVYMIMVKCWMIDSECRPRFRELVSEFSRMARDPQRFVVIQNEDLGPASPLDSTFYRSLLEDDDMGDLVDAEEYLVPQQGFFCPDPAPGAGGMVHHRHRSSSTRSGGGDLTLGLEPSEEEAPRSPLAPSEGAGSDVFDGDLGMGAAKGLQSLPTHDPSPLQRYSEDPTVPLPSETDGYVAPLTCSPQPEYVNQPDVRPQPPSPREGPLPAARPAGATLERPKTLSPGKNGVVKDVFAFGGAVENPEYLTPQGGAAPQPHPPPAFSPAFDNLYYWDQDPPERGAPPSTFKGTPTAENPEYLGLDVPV

What is called IC50 is the concentration that inhibits the measured activity by half. A lower IC50 goes with higher potency. Compound `O=C(CCCC(=O)Oc1ccc(/C=C/[N+](=O)[O-])cc1)Oc1ccccc1` came in with a half-inhibitory concentration (IC50) of 4.4 µM.
With `CC(C)O[C@@H]1[C@H](OC(C)C)[C@@H](COC(=O)CCCC(=O)Oc2ccc(/C=C/[N+](=O)[O-])cc2)O[C@H]1n1cnc2c(N)ncnc21` the figure was 4.5 µM; with `COc1ccc(OC(=O)CCCC(=O)Oc2ccc(/C=C/[N+](=O)[O-])cc2)cc1`, 6.6 µM.
Next, `O=C(CCCC(=O)Oc1ccc(/C=C/[N+](=O)[O-])cc1)OCc1ccco1`: 3.8 µM.

(Values after ChEMBL document CHEMBL1130506, “Inhibition of the her2 tyrosine kinase and characterization of a hydrophobic site near the nucleotide binding domain” (Bioorg Med Chem Lett, 1997).)
